Laboratory results taken from PMC10032564, “Ligand-Capped Cobalt(II) Multiplies the Value of the Double-Histidine Motif for PCS NMR Studies” (Journal of the American Chemical Society, 2023).

What was measured:
[1] = target: T1, GB1 (K28H/Q32H, diHis GB1) (Streptococcus sp. 'group G', UniProt P06654, K254H/Q258H); assay: NMR (Kd measurement; PCS of the NTA-Co2+ complex); format: binding
T1 construct: gene spg; GB1

[2] = target: T1, GB1 (K28H/Q32H, diHis GB1); assay: NMR titration; PCS of the IDA-Co2+ complex; format: binding

T1 sequence (P06654 228-282 K254H/Q258H limits assumed): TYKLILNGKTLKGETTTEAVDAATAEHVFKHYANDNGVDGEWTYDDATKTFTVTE

| SMILES | Kd [1] [µM] | Kd [2] [µM] |
| --- | --- | --- |
| O=C(O)CN(CC(=O)O)CC(=O)O [NTA-Co2+, nitrilotriacetic acid] | 128 | – |
| O=C(O)CNCC(=O)O [IDA-Co2+, iminodiacetic acid] | – | < 212 |
